Drawing on patent US9023865B2, “Compounds that are ERK inhibitors” (Merck Sharp & Dohme Corp., priority 2011, dated 2015), this text covers IC50 for 70 compounds.

Structures are written as SMILES.

This assay deals with Active Human ERK2 (hERK2) (Homo sapiens (Human), UniProt P28482). Briefly: Active Human ERK2 (hERK2) Activity Assay (IMAP-FP). Type of assay: biochemical. As to conditions: phosphorylated active hERK2, 30 μM ATP; average; read-out: ERK 2 Human average IC50. The procedure, abridged: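 Phosphorylation by activated human ERK2 (0.5 nM) at 30 μM ATP, peptide substrate 900 nM unlabeled with 80 nM labeled, proceeds 60 min. IMAP beads stop the reaction; after 60 min equilibration, product is measured by fluorescence polarization.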
Sequence of Active Human ERK2 (hERK2) (P28482 whole entry): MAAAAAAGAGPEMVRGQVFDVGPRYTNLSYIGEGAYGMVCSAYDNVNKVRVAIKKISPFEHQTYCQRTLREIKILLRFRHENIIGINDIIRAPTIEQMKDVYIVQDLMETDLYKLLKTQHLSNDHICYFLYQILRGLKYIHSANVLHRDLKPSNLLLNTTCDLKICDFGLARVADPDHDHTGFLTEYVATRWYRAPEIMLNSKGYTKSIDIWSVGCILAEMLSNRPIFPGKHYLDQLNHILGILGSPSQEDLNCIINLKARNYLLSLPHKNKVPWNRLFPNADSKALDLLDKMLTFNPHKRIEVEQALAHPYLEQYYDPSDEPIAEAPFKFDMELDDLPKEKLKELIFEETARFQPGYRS
As for `Cc1cc(-c2n[nH]c3cc(NC(=O)NC[C@@H](C)c4ccccc4)ncc23)ccn1` [Example 622], the IC50 amounted to 0.789 nM.
The same measure for `COCCNC(=O)Nc1cc2[nH]nc(-c3ccc(F)cc3)c2cn1` [Example 623, 1-[3-(4-Fluorophenyl)-1H-pyrazolo[4,3-c]pyridin-6-yl]-3-(2-methoxyethyl)urea]: 1.93 nM; for `COCCNC(=O)Nc1cc2[nH]nc(-c3ccc(C#N)cc3)c2cn1` [Example 624, 1-[3-(4-Cyanophenyl)-1H-pyrazolo[4,3-c]pyridin-6-yl]-3-(2-methoxyethyl)urea]: 4.38 nM; for `COCCNC(=O)Nc1cc2[nH]nc(-c3ccc4cn(C)nc4c3)c2cn1` [Example 625]: 13.6 nM.
To `COCCNC(=O)Nc1cc2[nH]nc(-c3ccc4nn(C)cc4c3)c2cn1` [Example 626] belongs 0.8 nM; to `COCCNC(=O)Nc1cc2[nH]nc(-c3ccccc3)c2cn1` [Example 627], 6.09 nM.
In the case of `COCCNC(=O)Nc1cc2[nH]nc(-c3ccnc(C4CC4)c3)c2cn1` [Example 629], the IC50 was 1.5 nM.
The same measure for `COCCNC(=O)Nc1cc2[nH]nc(-c3ccc(OC(C)C)nc3)c2cn1` [Example 630]: 2.12 nM; for `COCCNC(=O)Nc1cc2[nH]nc(-c3cc(C)nc(OC)c3)c2cn1` [Example 631]: 17.4 nM.
To `CO[C@H](C)CNC(=O)Nc1cc2[nH]nc(-c3ccc(F)cc3)c2cn1` [Example 634] belongs 1.3 nM.
To `CO[C@@H](C)CNC(=O)Nc1cc2[nH]nc(-c3ccc(F)cc3)c2cn1` [Example 635] belongs 0.873 nM; to `C[C@@H](NC(=O)Nc1cc2[nH]nc(-c3ccnc(F)c3)c2cn1)c1ccccc1` [Example 636], 0.251 nM.
On to `C[C@@H](NC(=O)Nc1cc2[nH]nc(-c3ccn(C4COC4)n3)c2cn1)c1ccccc1` [Example 638], for which the IC50 is 8.99 nM.
With `C[C@@H](NC(=O)Nc1cc2[nH]nc(-c3cnn(CC(C)(C)O)c3)c2cn1)c1ccccc1` [Example 639], the IC50 was found to be 0.535 nM.
To `C[C@@H](NC(=O)Nc1cc2[nH]nc(-c3cnoc3)c2cn1)c1ccccc1` [Example 640] belongs 3.6 nM; to `COC(=O)C1CC1c1n[nH]c2cc(NC(=O)N[C@H](C)c3ccccc3)ncc12` (stereo partly shown) [Example 641], 1100 nM.
Regarding `COC(=O)C1CC1c1n[nH]c2cc(NC(=O)N[C@H](C)c3ccccc3)ncc12` (stereo partly shown) [Example 642], the IC50 worked out at 327 nM.
For the compound `COC(=O)C1CC1c1n[nH]c2cc(NC(=O)N[C@H](C)c3ccccc3)ncc12` (stereo partly shown) [Example 643], the IC50 was determined as 1.33 nM.
Consider `COC(=O)C1CC1c1n[nH]c2cc(NC(=O)N[C@H](C)c3ccccc3)ncc12` (stereo partly shown) [Example 644], for which the half-inhibitory concentration (IC50) was 1.07 nM.
To `C[C@@H](NC(=O)Nc1cc2[nH]nc(-c3ccnc(F)c3)c2cn1)c1ccc(F)cc1` [Example 645] belongs 0.621 nM; to `Cc1cc(-c2n[nH]c3cc(NC(=O)NC4CCCC(Oc5ccc(Cl)c(F)c5)C4)ncc23)ccn1` (stereo not shown) [Example 646], 373 nM.
Take `C[C@@H](NC(=O)Nc1cc2[nH]nc(-c3cnn(C4COC4)c3)c2cn1)c1ccccc1` [Example 647]: the IC50 amounted to 0.464 nM.
As to `Cc1cc(-c2n[nH]c3cc(NC(=O)NC4CCCC(Oc5cccc(F)c5)C4)ncc23)ccn1` (stereo not shown) [Example 648], the IC50 was determined as 28.2 nM.
As to `COc1cccc(F)c1CN1CCC[C@@H](NC(=O)Nc2cc3[nH]nc(-c4ccnc(F)c4)c3cn2)C1` [Example 649], the half-maximal inhibitory concentration (IC50) came out at 1.06 nM.
To `COc1ccc(-c2n[nH]c3cc(NC(=O)N[C@H](C)c4ccccc4)ncc23)cn1` [Example 650] belongs 0.318 nM.
The same measure for `C[C@@H](NC(=O)Nc1cc2[nH]nc(-c3ccc4nn(C)cc4c3)c2cn1)c1ccccc1` [Example 651]: 0.223 nM; for `Cc1nc2ccc(-c3n[nH]c4cc(NC(=O)N[C@H](C)c5ccccc5)ncc34)cc2o1` [Example 652]: 0.72 nM; for `C[C@@H](NC(=O)Nc1cc2[nH]nc(C3CCCC3)c2cn1)c1ccccc1` [Example 653]: 4.16 nM.
The same measure for `COc1cccc(F)c1CN1CCC[C@@H](NC(=O)Nc2cc3[nH]nc(-c4ccc(F)cc4)c3cn2)C1` [Example 654]: 2.2 nM.
For the compound `COc1cccc(F)c1CN1CCC[C@@H](NC(=O)Nc2cc3[nH]nc(-c4ccc(C#N)cc4)c3cn2)C1` [Example 655], the IC50 amounted to 2.27 nM.
The same measure for `Cc1cc(-c2n[nH]c3cc(NC(=O)NC4CCCC(Oc5cccc(F)c5)C4)ncc23)ccn1` (stereo not shown) [Example 656]: 5.06 nM; for `Cc1cc(-c2n[nH]c3cc(NC(=O)NC4CCCC(Oc5cccc(F)c5)C4)ncc23)ccn1` (stereo not shown) [Example 657]: 4.67 nM; for `Cc1cc(-c2n[nH]c3cc(NC(=O)NC4CCCC(Oc5cccc(F)c5)C4)ncc23)ccn1` (stereo not shown) [Example 658]: 66.9 nM.
As for `Cc1cc(-c2n[nH]c3cc(NC(=O)NC4CCCC(Oc5cccc(F)c5)C4)ncc23)ccn1` (stereo not shown) [Example 659], the IC50 amounted to 51.9 nM.
The same measure for `C[C@@H](NC(=O)Nc1cc2[nH]nc(C3CC3C(=O)O)c2cn1)c1ccccc1` (stereo partly shown) [Example 660]: 2.66 nM; for `COc1cc(-c2n[nH]c3cc(NC(=O)N[C@H](C)c4ccccc4)ncc23)ccn1` [Example 661]: 0.928 nM; for `COc1cccc(F)c1CN1CCC[C@@H](NC(=O)Nc2cc3[nH]nc(-c4ccc5nn(C)cc5c4)c3cn2)C1` [Example 662]: 0.929 nM.
The same measure for `C[C@@H](NC(=O)Nc1cc2[nH]nc(C3=CNCN=C3)c2cn1)c1ccc(F)cc1` [Example 663]: 9.13 nM; for `C[C@@H](NC(=O)Nc1cc2[nH]nc(-c3cncc(F)c3)c2cn1)c1ccc(F)cc1` [Example 664]: 2.49 nM.
To `C[C@@H](NC(=O)Nc1cc2[nH]nc(C(C)(F)F)c2cn1)c1ccc(F)cc1` [Example 665] belongs 193 nM; to `CC(F)(F)c1n[nH]c2cc(NC(=O)NCc3ccccc3)ncc12` [Example 667], 259 nM; to `CC(F)(F)c1n[nH]c2cc(NC(=O)NCc3ccc(F)cc3)ncc12` [Example 668], 647 nM.
In the case of `C[C@@H](NC(=O)Nc1cc2[nH]nc(C(F)F)c2cn1)c1ccc(F)cc1` [Example 669], the IC50 was found to be 21.6 nM.
In the case of `C[C@@H](NC(=O)Nc1cc2[nH]nc(C(F)F)c2cn1)c1ccccc1` [Example 670], the IC50 amounted to 13.6 nM.
In the case of `C[C@@H](NC(=O)Nc1cc2[nH]nc(-c3cncnc3)c2cn1)c1ccc(F)cc1` [Example 671], the IC50 was 2.33 nM.
To `C[C@@H](NC(=O)Nc1cc2[nH]nc(-c3cccc(C#N)c3)c2cn1)c1ccccc1` [Example 672] belongs 1.55 nM; to `N#Cc1cccc(-c2n[nH]c3cc(NC(=O)NCc4ccc(F)cc4)ncc23)c1` [Example 673], 5.41 nM.
On to `C[C@@H](NC(=O)Nc1cc2[nH]nc(-c3ccc(OC(F)(F)F)cc3)c2cn1)c1ccccc1` [Example 674], for which the IC50 was 13.2 nM.
For `O=C(NCc1ccc(F)cc1)Nc1cc2[nH]nc(-c3ccc(OC(F)(F)F)cc3)c2cn1` [Example 675], the IC50 came to 89.2 nM.
In the case of `COc1ccc(-c2n[nH]c3cc(NC(=O)N[C@H](C)c4ccccc4)ncc23)cc1` [Example 676], the IC50 worked out at 0.94 nM.
`COc1ccc(-c2n[nH]c3cc(NC(=O)NCc4ccc(F)cc4)ncc23)cc1` [Example 677]: the IC50 was 3.67 nM.
`C[C@@H](NC(=O)Nc1cc2[nH]nc(C(F)F)c2cn1)c1ccccn1` [Example 678]: the IC50 stood at 765 nM.
To `Cc1nnc(-c2n[nH]c3cc(NC(=O)N[C@H](C)c4ccccc4)ncc23)o1` [Example 681] belongs 7.7 nM.
To `Cc1cc(-c2n[nH]c3cc(NC(=O)N[C@H](C)c4ccccc4)ncc23)no1` [Example 682] belongs 32.4 nM; to `COC[C@@H](NC(=O)Nc1cc2[nH]nc(-c3cc(C)on3)c2cn1)c1ccccc1` [Example 683], 4.36 nM; to `CCCC(=O)c1n[nH]c2cc(NC(=O)N[C@H](COC)c3ccccc3)ncc12` [Example 684], 26.8 nM.
On to `COC[C@@H](NC(=O)Nc1cc2[nH]nc(C3=NOC(C)C3)c2cn1)c1ccccc1` (stereo partly shown) [Example 686], for which the IC50 was found to be 23.8 nM.
Consider `CC1CC(c2n[nH]c3cc(NC(=O)N[C@H](C)c4ccccc4)ncc23)=NO1` (stereo partly shown) [Example 687], for which the IC50 came out at 56 nM.
The same measure for `COC[C@@H](NC(=O)Nc1cc2[nH]nc(-c3cc(C)on3)c2cn1)c1ccc(F)cc1` [Example 688]: 5.39 nM.
To `Cc1cc(-c2n[nH]c3cc(NC(=O)NC4CCCOc5ccccc54)ncc23)no1` (stereo not shown) [Example 689] belongs 5.15 nM.
Turning to `Cc1cc(-c2n[nH]c3cc(NC(=O)NC4CCCOc5ccccc54)ncc23)no1` (stereo not shown) [Example 690], the IC50 stood at 240 nM.
To `CCOC[C@@H](NC(=O)Nc1cc2[nH]nc(C(F)F)c2cn1)c1ccccc1` [Example 692] belongs 12 nM.
To `O=C(Nc1cc2[nH]nc(C(F)F)c2cn1)N[C@H](COCC1CC1)c1ccccc1` [Example 693] belongs 21.4 nM.
The same measure for `COCCOC[C@@H](NC(=O)Nc1cc2[nH]nc(C(F)F)c2cn1)c1ccccc1` [Example 694]: 6.03 nM; for `Cc1cccc(CNC(=O)Nc2cc3[nH]nc(C(F)F)c3cn2)n1` [Example 695]: 155 nM.
Regarding `O=C(Nc1cc2[nH]nc(C(F)F)c2cn1)NC1Cc2ccccc2C1O` (stereo not shown) [Example 696], the IC50 was 175 nM.
To `COC[C@@H](NC(=O)Nc1cc2[nH]nc(-c3ccc4nnn(C)c4c3)c2cn1)c1ccccc1` [Example 697] belongs 0.221 nM; to `CCOC[C@@H](NC(=O)Nc1cc2[nH]nc(-c3cc(C)on3)c2cn1)c1ccccc1` [Example 698], 6.78 nM.
To `Cc1cc(-c2n[nH]c3cc(NC(=O)N[C@H](COCC4CC4)c4ccccc4)ncc23)no1` [Example 699] belongs 23.5 nM; to `COCCOC[C@@H](NC(=O)Nc1cc2[nH]nc(-c3cc(C)on3)c2cn1)c1ccccc1` [Example 700], 11.9 nM.
